Results reported in ChEMBL document CHEMBL1138654, “Ring nitrogen-substituted non-steroidal estrogens: pyridine and pyrimidine analogs of the phenol in deoxyhexestrol experience resonance constraints on preferred ligand conformation” (Bioorg Med Chem Lett, 2004).

Legend:
[1] = pKa was determined; assay type: physicochemical
[2] = target: T1, Estrogen receptor (Homo sapiens) (UniProt P03372); assay: Inhibition of [3H]estradiol binding to human estrogen receptor alpha
T1 sequence (whole entry): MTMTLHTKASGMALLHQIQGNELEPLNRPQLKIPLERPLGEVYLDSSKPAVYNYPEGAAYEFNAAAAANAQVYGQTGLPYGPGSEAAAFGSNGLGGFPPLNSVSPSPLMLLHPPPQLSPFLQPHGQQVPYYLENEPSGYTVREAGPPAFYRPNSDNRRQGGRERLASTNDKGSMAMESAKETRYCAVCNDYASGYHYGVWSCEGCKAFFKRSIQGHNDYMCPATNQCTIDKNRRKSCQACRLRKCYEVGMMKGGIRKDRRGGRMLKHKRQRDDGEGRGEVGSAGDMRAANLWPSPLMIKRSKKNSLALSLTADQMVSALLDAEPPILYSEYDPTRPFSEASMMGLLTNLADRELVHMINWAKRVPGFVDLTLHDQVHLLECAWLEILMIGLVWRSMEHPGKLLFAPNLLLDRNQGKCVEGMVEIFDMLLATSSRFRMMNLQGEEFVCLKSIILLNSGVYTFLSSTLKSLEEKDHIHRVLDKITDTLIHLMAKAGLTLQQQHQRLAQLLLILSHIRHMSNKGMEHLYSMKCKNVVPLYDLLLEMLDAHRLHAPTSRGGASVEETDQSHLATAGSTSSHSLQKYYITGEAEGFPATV

[3] = target: Estrogen receptor beta (Homo sapiens) (UniProt Q92731); assay: Inhibition of [3H]estradiol binding to human estrogen receptor beta
Estrogen receptor beta (Homo sapiens), sequence (Q92731 whole entry): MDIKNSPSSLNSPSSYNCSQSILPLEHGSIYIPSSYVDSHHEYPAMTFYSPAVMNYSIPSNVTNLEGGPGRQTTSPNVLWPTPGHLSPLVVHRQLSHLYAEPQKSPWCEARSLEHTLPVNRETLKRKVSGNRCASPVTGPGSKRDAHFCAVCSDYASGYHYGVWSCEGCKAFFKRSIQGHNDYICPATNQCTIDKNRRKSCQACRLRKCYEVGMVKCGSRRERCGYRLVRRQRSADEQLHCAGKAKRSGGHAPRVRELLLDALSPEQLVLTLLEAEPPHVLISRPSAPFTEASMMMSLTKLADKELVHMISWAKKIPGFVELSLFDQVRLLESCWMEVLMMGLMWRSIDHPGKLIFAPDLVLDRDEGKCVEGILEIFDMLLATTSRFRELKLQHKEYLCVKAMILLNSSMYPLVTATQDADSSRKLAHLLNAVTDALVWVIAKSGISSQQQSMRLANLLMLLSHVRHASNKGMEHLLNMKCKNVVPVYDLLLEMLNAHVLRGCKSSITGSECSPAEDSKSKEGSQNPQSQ

Structure (SMILES) | pKa [1] | relative binding affinity (RBA) [2] | relative binding affinity (RBA) [3]
CCC(c1ccccc1)N(CC)c1ncc(O)cn1 (stereo not drawn) | 3.9 | – | –
CC(c1ccc(O)cc1)C(C)c1ccc(O)cc1 (stereo not drawn) | – | 2.2 | 40
